According to PubChem BioAssay AID1787 (Sanford-Burnham Center for Chemical Genomics, 2009):
Active and inactive are the calls of the source. No rule for the calls is given here.

Tested on: MDA-MB-435 cytotoxicity with TRAIL, ATPlite luminescence, 24 h
Assay: PubChem AID 1787

Q: What does the source list for `CSc1nc(-c2ccc(C)cc2)nc(C(Cl)Cl)n1`?
A: cytotoxicity (TRAIL alone cytotoxicity, dose or concentration not given here): 42%; cytotoxicity with TRAIL (at 30 µM (top of the series)): 92 (inactive); cytotoxicity (compound alone cytotoxicity series, at 30 µM, stronger effect = higher value): 8%
